Laboratory results reported in patent US20250215030A1, “STAT MODULATORS AND USES THEREOF” (Recludix Pharma, Inc., priority 2022, published 2025).

Legend:
[1] = molecular target: T1, Recombinant STAT6 protein (STAT6(W123-T658)) (Homo sapiens, UniProt P42226); experiment: STAT6 Fluorescence Polarization (FP) Assay; type: binding; settings: STAT6(W123-T658) 250 nM, probe 5-FAM-ApYKPFQDLI-NH2 2 nM, 45-minute incubation
T1 construct: STAT6(W123-T658)
T1 sequence (P42226 123-658): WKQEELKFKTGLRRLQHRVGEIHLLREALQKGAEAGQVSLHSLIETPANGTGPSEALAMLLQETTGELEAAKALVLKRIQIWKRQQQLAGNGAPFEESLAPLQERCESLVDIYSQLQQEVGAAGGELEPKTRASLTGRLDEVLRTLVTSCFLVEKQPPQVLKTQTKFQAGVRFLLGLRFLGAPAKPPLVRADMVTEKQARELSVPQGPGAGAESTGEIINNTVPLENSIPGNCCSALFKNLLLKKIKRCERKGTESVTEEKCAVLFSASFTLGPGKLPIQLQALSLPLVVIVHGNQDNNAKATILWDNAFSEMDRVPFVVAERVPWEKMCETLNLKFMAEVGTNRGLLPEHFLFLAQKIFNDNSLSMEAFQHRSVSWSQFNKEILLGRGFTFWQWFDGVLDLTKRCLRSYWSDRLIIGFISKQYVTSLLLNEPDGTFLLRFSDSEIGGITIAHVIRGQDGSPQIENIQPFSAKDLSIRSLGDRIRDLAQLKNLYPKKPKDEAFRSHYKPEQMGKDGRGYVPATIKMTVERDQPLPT
Summary of the method: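 STAT6 (W123-T658) at 250 nM mixed with 2 nM 5-FAM-ApYKPFQDLI-NH2 probe in HEPES pH 7.4 buffer with DTT and Tween 20, 1% DMSO final. Polarization read after 45 min at room temperature; IC50 by nonlinear regression of mP versus log concentration, reported in bins A–D.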

[2] = molecular target: T2, Recombinant STAT3 protein (STAT3(G127-I722)) (Homo sapiens, UniProt P40763); experiment: STAT3 Fluorescence Polarization (FP) Assay; type: binding; settings: STAT3(G127-I722) 25 nM, probe 5-FAM-GpYLPQTV-NH2 2 nM, 45-minute incubation
T2 construct: STAT3(G127-I722)
T2 sequence (P40763 127-722, species assumed): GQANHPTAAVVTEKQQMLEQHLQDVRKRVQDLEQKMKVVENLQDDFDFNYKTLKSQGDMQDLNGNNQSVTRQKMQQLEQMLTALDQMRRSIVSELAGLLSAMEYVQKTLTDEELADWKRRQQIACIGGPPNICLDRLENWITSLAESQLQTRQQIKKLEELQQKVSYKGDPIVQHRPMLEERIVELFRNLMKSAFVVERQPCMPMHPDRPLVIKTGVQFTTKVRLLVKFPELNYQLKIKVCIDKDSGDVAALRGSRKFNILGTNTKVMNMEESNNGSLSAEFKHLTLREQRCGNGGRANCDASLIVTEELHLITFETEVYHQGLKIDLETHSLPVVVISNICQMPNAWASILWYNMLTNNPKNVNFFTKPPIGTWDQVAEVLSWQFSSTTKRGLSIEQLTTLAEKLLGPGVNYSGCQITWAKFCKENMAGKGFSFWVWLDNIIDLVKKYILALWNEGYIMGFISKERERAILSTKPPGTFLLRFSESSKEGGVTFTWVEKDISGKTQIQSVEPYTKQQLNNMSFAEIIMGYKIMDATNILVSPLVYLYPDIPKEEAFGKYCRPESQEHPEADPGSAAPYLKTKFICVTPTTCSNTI
Summary of the method: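 STAT3(G127-I722) at 25 nM and 5-FAM-GpYLPQTV-NH2 probe at 2 nM in HEPES pH 7.4 buffer with NaCl, EDTA, Tween 20, DTT; 1% DMSO. FP read after 45 min at room temperature; IC50 by nonlinear regression of mP vs log concentration, binned A ≤100 nM to D >10 μM.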

SMILES	IC50 [1] [µM]	IC50 [2] [µM]
O=C(N[C@H]1C[C@@H]2C[C@@H]2C[C@H]2CC[C@@H](C(=O)N3CC(Cc4ccccc4F)C3)N2C1=O)c1cc2cc(CP(=O)(O)O)ccc2s1 [Example 368, ((2-(((3S,6S,7aS,8aR,9aR)-3-(3-(2-fluorobenzyl)azetidine-1-carbonyl)-5-oxodecahydro-1H-cyclopropa[d]pyrrolo[1,2-a]azocin-6-yl)carbamoyl)benzo[b]thiophen-5-yl)methyl)phosphonic acid]	3 to 30	1 to 10
O=C(N[C@H]1C[C@@H]2C[C@@H]2C[C@H]2CC[C@@H](C(=O)N3CC(Cc4ccc(F)cc4)C3)N2C1=O)c1cc2cc(CP(=O)(O)O)ccc2s1 [Example 369, ((2-(((3S,6S,7aS,8aR,9aR)-3-(3-(4-fluorobenzyl)azetidine-1-carbonyl)-5-oxodecahydro-1H-cyclopropa[d]pyrrolo[1,2-a]azocin-6-yl)carbamoyl)benzo[b]thiophen-5-yl)methyl)phosphonic acid]	3 to 30	0.1 to 1
O=C(N[C@H]1C[C@@H]2C[C@@H]2C[C@H]2CC[C@@H](C(=O)N3CC(Cc4ccc(F)cc4F)C3)N2C1=O)c1cc2cc(CP(=O)(O)O)ccc2s1 [Example 377, ((2-(((3S,6S,7aS,8aR,9aR)-3-(3-(2,4-difluorobenzyl)azetidine-1-carbonyl)-5-oxodecahydro-1H-cyclopropa[d]pyrrolo[1,2-a]azocin-6-yl)carbamoyl)benzo[b]thiophen-5-yl)methyl)phosphonic acid]	3 to 30	0.1 to 1
O=C(N[C@H]1C[C@@H]2C[C@@H]2C[C@H]2CC[C@@H](C(=O)N3CC(Cc4cc(F)ccc4F)C3)N2C1=O)c1cc2cc(CP(=O)(O)O)ccc2s1 [Example 378, ((2-(((3S,6S,7aS,8aR,9aR)-3-(3-(2,5-difluorobenzyl)azetidine-1-carbonyl)-5-oxodecahydro-1H-cyclopropa[d]pyrrolo[1,2-a]azocin-6-yl)carbamoyl)benzo[b]thiophen-5-yl)methyl)phosphonic acid]	3 to 30	1 to 10
Cn1cc(CC2CN(C(=O)[C@@H]3CC[C@@H]4C[C@H]5C[C@H]5C[C@H](NC(=O)c5cc6cc(CP(=O)(O)O)ccc6s5)C(=O)N43)C2)cn1 [Example 379, ((2-(((3S,6S,7aS,8aR,9aR)-3-(3-((1-methyl-1H-pyrazol-4-yl)methyl)azetidine-1-carbonyl)-5-oxodecahydro-1H-cyclopropa[d]pyrrolo[1,2-a]azocin-6-yl)carbamoyl)benzo[b]thiophen-5-yl)methyl)phosphonic acid]	3 to 30	1 to 10
O=C(N[C@H]1C[C@@H]2C[C@@H]2C[C@H]2CC[C@@H](C(=O)N3CC(Cc4cccnc4)C3)N2C1=O)c1cc2cc(CP(=O)(O)O)ccc2s1 [Example 380, ((2-(((3S,6S,7aS,8aR,9aR)-5-oxo-3-(3-(pyridin-3-ylmethyl)azetidine-1-carbonyl)decahydro-1H-cyclopropa[d]pyrrolo[1,2-a]azocin-6-yl)carbamoyl)benzo[b]thiophen-5-yl)methyl)phosphonic acid]	3 to 30	0.1 to 1
O=C(N[C@H]1C[C@@H]2C[C@@H]2C[C@H]2CC[C@@H](C(=O)N3CCC34CCCCC4)N2C1=O)c1cc2cc(C(F)P(=O)(O)O)ccc2s1 (stereo partly drawn) [Example 388, (fluoro(2-(((3S,6S,7aS,8aR,9aR)-5-oxo-3-(1-azaspiro[3.5]nonane-1-carbonyl)decahydro-1H-cyclopropa[d]pyrrolo[1,2-a]azocin-6-yl)carbamoyl)benzo[b]thiophen-5-yl)methyl)phosphonic acid]	3 to 30	1 to 10

Continued, values first:

IC50 [1] [µM]	IC50 [2] [µM]	SMILES
3 to 30	1 to 10	O=C(N[C@H]1C[C@@H]2C[C@@H]2C[C@H]2CC[C@@H](C(=O)N3CCOc4ccccc43)N2C1=O)c1cc2cc(C(F)P(=O)(O)O)ccc2s1 (stereo partly drawn) [Example 372, ((2-(((3S,6S,7aS,8aR,9aR)-3-(3,4-dihydro-2H-benzo[b][1,4]oxazine-4-carbonyl)-5-oxodecahydro-1H-cyclopropa[d]pyrrolo[1,2-a]azocin-6-yl)carbamoyl)benzo[b]thiophen-5-yl)fluoromethyl)phosphonic acid]
3 to 30	1 to 10	O=C(N[C@H]1C[C@@H]2C[C@@H]2C[C@H]2CC[C@@H](C(=O)N3CCCOc4ccccc43)N2C1=O)c1cc2cc(C(F)P(=O)(O)O)ccc2s1 (stereo partly drawn) [Example 373, (fluoro(2-(((3S,6S,7aS,8aR,9aR)-5-oxo-3-(2,3,4,5-tetrahydrobenzo[b][1,4]oxazepine-5-carbonyl)decahydro-1H-cyclopropa[d]pyrrolo[1,2-a]azocin-6-yl)carbamoyl)benzo[b]thiophen-5-yl)methyl)phosphonic acid]
3 to 30	0.1 to 1	O=C(N[C@H]1C[C@@H]2C[C@@H]2C[C@H]2CC[C@@H](C(=O)N3CC(c4cc(C(F)F)on4)C3)N2C1=O)c1cc2cc(C(F)P(=O)(O)O)ccc2s1 (stereo partly drawn) [Example 375, ((2-(((3S,6S,7aS,8aR,9aR)-3-(3-(5-(difluoromethyl)isoxazol-3-yl)azetidine-1-carbonyl)-5-oxodecahydro-1H-cyclopropa[d]pyrrolo[1,2-a]azocin-6-yl)carbamoyl)benzo[b]thiophen-5-yl)fluoromethyl)phosphonic acid]
3 to 30	< 0.1	Cc1cnc(N2C[C@H](NC(=O)[C@@H]3CC[C@@H]4C[C@H]5C[C@H]5C[C@H](NC(=O)c5cc6cc(C(F)P(=O)(O)O)ccc6s5)C(=O)N43)[C@@H](F)C2)n1C (stereo partly drawn) [Example 376, ((2-(((3S,6S,7aS,8aR,9aR)-3-(((3S,4S)-1-(1,5-dimethyl-1H-imidazol-2-yl)-4-fluoropyrrolidin-3-yl)carbamoyl)-5-oxodecahydro-1H-cyclopropa[d]pyrrolo[1,2-a]azocin-6-yl)carbamoyl)benzo[b]thiophen-5-yl)fluoromethyl)phosphonic acid]
0.3 to 3	1 to 10	Cc1ccc2c(c1)OCCN2C(=O)[C@@H]1CC[C@@H]2C[C@H]3C[C@H]3C[C@H](NC(=O)c3cc4cc(C(F)P(=O)(O)O)ccc4s3)C(=O)N21 (stereo partly drawn) [Example 383, (fluoro(2-(((3S,6S,7aS,8aR,9aR)-3-(7-methyl-3,4-dihydro-2H-benzo[b][1,4]oxazine-4-carbonyl)-5-oxodecahydro-1H-cyclopropa[d]pyrrolo[1,2-a]azocin-6-yl)carbamoyl)benzo[b]thiophen-5-yl)methyl)phosphonic acid]
3 to 30	1 to 10	O=C(N[C@H]1C[C@@H]2C[C@@H]2C[C@H]2CC[C@@H](C(=O)N3CCOc4cc(F)ccc43)N2C1=O)c1cc2cc(C(F)P(=O)(O)O)ccc2s1 (stereo partly drawn) [Example 384, (fluoro(2-(((3S,6S,7aS,8aR,9aR)-3-(7-fluoro-3,4-dihydro-2H-benzo[b][1,4]oxazine-4-carbonyl)-5-oxodecahydro-1H-cyclopropa[d]pyrrolo[1,2-a]azocin-6-yl)carbamoyl)benzo[b]thiophen-5-yl)methyl)phosphonic acid]
3 to 30	1 to 10	O=C(N[C@H]1C[C@@H]2C[C@@H]2C[C@H]2CC[C@@H](C(=O)N3CCOc4cccnc43)N2C1=O)c1cc2cc(C(F)P(=O)(O)O)ccc2s1 (stereo partly drawn) [Example 385, ((2-(((3S,6S,7aS,8aR,9aR)-3-(3,4-dihydro-2H-pyrido[3,2-b][1,4]oxazine-4-carbonyl)-5-oxodecahydro-1H-cyclopropa[d]pyrrolo[1,2-a]azocin-6-yl)carbamoyl)benzo[b]thiophen-5-yl)fluoromethyl)phosphonic acid]
0.3 to 3	1 to 10	O=C(N[C@H]1C[C@@H]2C[C@@H]2C[C@H]2CC[C@@H](C(=O)N3CCOc4ncccc43)N2C1=O)c1cc2cc(C(F)P(=O)(O)O)ccc2s1 (stereo partly drawn) [Example 386, ((2-(((3S,6S,7aS,8aR,9aR)-3-(2,3-dihydro-1H-pyrido[2,3-b][1,4]oxazine-1-carbonyl)-5-oxodecahydro-1H-cyclopropa[d]pyrrolo[1,2-a]azocin-6-yl)carbamoyl)benzo[b]thiophen-5-yl)fluoromethyl)phosphonic acid]
3 to 30	1 to 10	O=C(N[C@H]1C[C@@H]2C[C@@H]2C[C@H]2CC[C@@H](C(=O)N3CCN(C4COC4)c4ccccc43)N2C1=O)c1cc2cc(C(F)P(=O)(O)O)ccc2s1 (stereo partly drawn) [Example 387, (fluoro(2-(((3S,6S,7aS,8aR,9aR)-3-(4-(oxetan-3-yl)-1,2,3,4-tetrahydroquinoxaline-1-carbonyl)-5-oxodecahydro-1H-cyclopropa[d]pyrrolo[1,2-a]azocin-6-yl)carbamoyl)benzo[b]thiophen-5-yl)methyl)phosphonic acid]
